The results in this text go back to ChEMBL document CHEMBL6115036, “Exploration of membrane-active cephalosporin derivatives as potent antibacterial agents against Staphylococcus aureus biofilms and persisters” (Eur J Med Chem, 2025).

Structures are written as SMILES. ≈ marks a conversion by molar mass, not a printed value.

Data set [1] relates to Staphylococcus aureus. Kind of data set: Antimicrobial activity against Staphylococcus aureus incubated for 16 to 18 hrs by broth dilution assay. Format: functional. To be noted: time 16-18 hrs.
The test system of data set [2] is Enterococcus faecalis. Kind of data set: Antimicrobial activity against Enterococcus faecalis incubated for 16 to 18 hrs by broth dilution assay. In kind it is functional. The settings on record: time 16-18 hrs.
Data set [3] has as its system Stenotrophomonas maltophilia. Kind of data set: Antimicrobial activity against Stenotrophomonas maltophilia incubated for 16 to 18 hrs by broth dilution assay. In kind it is functional. To be noted: time 16-18 hrs.
Data set [4] concerns Escherichia coli. Kind of data set: Antimicrobial activity against Escherichia coli incubated for 16 to 18 hrs by broth dilution assay. In kind it is functional. To be noted: time 16-18 hrs.
Data set [5] can be described thus: Hemolytic activity in sheep red blood cells incubated for 1 hr. In kind it is toxicity, cell-based, Ovis aries, Erythrocyte.

Consider `COc1ccc(COC(=O)C2=C(C[n+]3ccccc3)CS[C@@H]3[C@H](NC(=O)Cc4ccccc4)C(=O)N23)cc1.[I-]`, for which the MIC in data set [1] came to 0.25 µg/mL.

Regarding `CC(=O)OCC1=C(C(=O)O)N2C(=O)[C@@H](NC(=O)c3ccncc3)[C@H]2SC1`, the MIC was more than 128 µg/mL in data set [2], 16 µg/mL (≈ 42.4 µM) in data set [1], more than 128 µg/mL in data set [3] and more than 128 µg/mL in data set [4].

As to `CC[n+]1ccc(SCC2=C(C(=O)O)N3C(=O)[C@@H](NC(=O)Cc4ccccc4)[C@H]3SC2)cc1.O=C([O-])C(F)(F)F`, the MIC in data set [2] is 8 µg/mL; in data set [1], 0.063 µg/mL; in data set [3], 8 µg/mL; in data set [4], 8 µg/mL.

Turning to `CCCCCCNC(=O)c1ccc[n+](CC2=C(C(=O)O)N3C(=O)[C@@H](NC(=O)Cc4ccccc4)[C@H]3SC2)c1.[I-]`, the MIC in data set [2] stood at 16 µg/mL; in data set [1] it was 0.125 µg/mL; in data set [3], 64 µg/mL; in data set [4], 64 µg/mL. For the same molecule, the HC50 at 1 h in data set [5] was more than 1280 µg/mL.

As to `CCCC[n+]1ccc(SCC2=C(C(=O)OCc3ccc(OC)cc3)N3C(=O)[C@@H](NC(=O)Cc4ccccc4)[C@H]3SC2)cc1.O=C([O-])C(F)(F)F`, the MIC in data set [2] worked out at 16 µg/mL; in data set [1], 0.125 µg/mL; in data set [3] it was 32 µg/mL; in data set [4], 16 µg/mL.

With `CC(=O)OCC1=C(C(=O)OC(c2ccccc2)c2ccccc2)N2C(=O)[C@@H](NC(=O)c3cc[n+](C)cc3)[C@H]2SC1.[I-]`, the MIC in data set [2] was more than 128 µg/mL; in data set [1], 128 µg/mL; in data set [3] it was more than 128 µg/mL; in data set [4], more than 128 µg/mL.

For the molecule `CCCC[n+]1ccc(C(=O)N[C@@H]2C(=O)N3C(C(=O)OC(c4ccccc4)c4ccccc4)=C(COC(C)=O)CS[C@H]23)cc1.[I-]`, the MIC in data set [2] was 128 µg/mL; in data set [1], 128 µg/mL; in data set [3] it was more than 128 µg/mL; in data set [4], more than 128 µg/mL.

`CCCCCCCC[n+]1ccc(-c2cc[n+](CC3=C(C(=O)OCc4ccc(OC)cc4)N4C(=O)[C@@H](NC(=O)Cc5ccccc5)[C@H]4SC3)cc2)cc1.[I-].[I-]`: the MIC in data set [2] amounted to 32 µg/mL; in data set [1], 0.5 µg/mL; in data set [3], 128 µg/mL; in data set [4], 128 µg/mL. Moreover, the HC50 at 1 h in data set [5] was more than 1280 µg/mL.

Molecule `CCCCCCCCCCCCNC(=O)c1ccc[n+](CC2=C(C(=O)OCc3ccc(OC)cc3)N3C(=O)[C@@H](NC(=O)Cc4ccccc4)[C@H]3SC2)c1.[I-]` had a minimal inhibitory concentration (MIC) in data set [1] of 0.25 µg/mL.

In the case of `CCCCCCNC(=O)c1cc[n+](CC2=C(C(=O)O)N3C(=O)[C@@H](NC(=O)Cc4ccccc4)[C@H]3SC2)cc1.[I-]`, the MIC worked out at 16 µg/mL in data set [2], 0.125 µg/mL in data set [1], 64 µg/mL in data set [3] and 64 µg/mL in data set [4]. This molecule also yielded an HC50 at 1 h in data set [5] of more than 1280 µg/mL.

In the case of `CCCCCC[n+]1ccc(SCC2=C(C(=O)OCc3ccc(OC)cc3)N3C(=O)[C@@H](NC(=O)Cc4ccccc4)[C@H]3SC2)cc1.O=C([O-])C(F)(F)F`, the MIC in data set [2] amounted to 16 µg/mL; in data set [1], 0.063 µg/mL; in data set [3], 64 µg/mL; in data set [4], 64 µg/mL.

Turning to `CCCC[n+]1ccc(SCC2=C(C(=O)O)N3C(=O)[C@@H](NC(=O)Cc4ccccc4)[C@H]3SC2)cc1.O=C([O-])C(F)(F)F`, the MIC in data set [2] turned out to be 8 µg/mL; in data set [1], 0.063 µg/mL; in data set [3], 8 µg/mL; in data set [4], 4 µg/mL.

For `CCCCCCCCCC[n+]1ccc(C(=O)N[C@@H]2C(=O)N3C(C(=O)O)=C(COC(C)=O)CS[C@H]23)cc1.[I-]`, the MIC in data set [2] was 128 µg/mL; in data set [1], 128 µg/mL; in data set [3] it was more than 128 µg/mL; in data set [4] it was more than 128 µg/mL.

As for `CCCCCCNC(=O)c1ccc[n+](CC2=C(C(=O)OCc3ccc(OC)cc3)N3C(=O)[C@@H](NC(=O)Cc4ccccc4)[C@H]3SC2)c1.[I-]`, the MIC in data set [1] was found to be 0.25 µg/mL.

Take `CCCCNC(=O)c1cc[n+](CC2=C(C(=O)O)N3C(=O)[C@@H](NC(=O)Cc4ccccc4)[C@H]3SC2)cc1.[I-]`: the MIC in data set [2] was 32 µg/mL; in data set [1] it was 0.125 µg/mL; in data set [3], 64 µg/mL; in data set [4], 32 µg/mL. The HC50 at 1 h in data set [5] was more than 1280 µg/mL.

Turning to `C[C@@H](O)[C@H]1C(=O)N2C(C(=O)O)=C(S[C@@H]3CN[C@H](C(=O)N(C)C)C3)[C@H](C)[C@H]12` [MEROPENEM], the MIC in data set [3] and in data set [4] was 0.031 µg/mL (≈ 0.0808 µM) in each case. The same molecule yielded an HC50 at 1 h in data set [5] of more than 1280 µg/mL.

Take `CCCCNC(=O)c1cc[n+](CC2=C(C(=O)OCc3ccc(OC)cc3)N3C(=O)[C@@H](NC(=O)Cc4ccccc4)[C@H]3SC2)cc1.[I-]`: in data set [1], the MIC was 0.25 µg/mL.

`CCCCCC[n+]1ccc(SCC2=C(C(=O)O)N3C(=O)[C@@H](NC(=O)Cc4ccccc4)[C@H]3SC2)cc1.O=C([O-])C(F)(F)F`: the MIC in data set [2] is 8 µg/mL; in data set [1] it was 0.063 µg/mL; in data set [3], 32 µg/mL; in data set [4] it was 32 µg/mL.

Take `CCCCCCNC(=O)c1cc[n+](CC2=C(C(=O)OCc3ccc(OC)cc3)N3C(=O)[C@@H](NC(=O)Cc4ccccc4)[C@H]3SC2)cc1.[I-]`: the MIC in data set [1] was 0.25 µg/mL.

For `CCCCCC[n+]1ccc(-c2cc[n+](CC3=C(C(=O)[O-])N4C(=O)[C@@H](NC(=O)Cc5ccccc5)[C@H]4SC3)cc2)cc1.O=C([O-])C(F)(F)F`, the MIC amounted to 16 µg/mL in data set [2], 0.125 µg/mL in data set [1], 16 µg/mL in data set [3] and 16 µg/mL in data set [4]. In data set [5], the HC50 at 1 h was more than 1280 µg/mL.

In the case of `CCCCCCCC[n+]1ccc(-c2cc[n+](CC3=C(C(=O)[O-])N4C(=O)[C@@H](NC(=O)Cc5ccccc5)[C@H]4SC3)cc2)cc1.O=C([O-])C(F)(F)F`, the MIC in data set [2] was found to be 16 µg/mL; in data set [1], 0.125 µg/mL; in data set [3], 64 µg/mL; in data set [4], 64 µg/mL. This molecule displayed an HC50 at 1 h in data set [5] of more than 1280 µg/mL.

Regarding `CCCC[n+]1ccc(C(=O)N[C@@H]2C(=O)N3C(C(=O)O)=C(COC(C)=O)CS[C@H]23)cc1.[I-]`, the MIC in data set [2], in data set [1], in data set [3] and in data set [4] was more than 128 µg/mL in each case.

For the molecule `CC(=O)OCC1=C(C(=O)O)N2C(=O)[C@@H](NC(=O)c3cc[n+](C)cc3)[C@H]2SC1.[I-]`, the minimal inhibitory concentration (MIC) was more than 128 µg/mL in data set [2], 128 µg/mL in data set [1], more than 128 µg/mL in data set [3] and more than 128 µg/mL in data set [4].

Take `CCCCNC(=O)c1ccc[n+](CC2=C(C(=O)OCc3ccc(OC)cc3)N3C(=O)[C@@H](NC(=O)Cc4ccccc4)[C@H]3SC2)c1.[I-]`: 0.25 µg/mL was the least that counted as inhibitory in data set [1] (MIC).

On to `O=C(Cc1ccccc1)N[C@@H]1C(=O)N2C(C(=O)O)=C(CSc3ccncc3)CS[C@H]12`, for which the MIC in data set [2] came out at 16 µg/mL (≈ 36.2 µM); in data set [1], 0.063 µg/mL (≈ 0.143 µM); in data set [3] it was 64 µg/mL (≈ 145 µM); in data set [4], 64 µg/mL (≈ 145 µM).

`CCCCCCCCCCCCCCNC(=O)c1ccc[n+](CC2=C(C(=O)OCc3ccc(OC)cc3)N3C(=O)[C@@H](NC(=O)Cc4ccccc4)[C@H]3SC2)c1.[I-]` gave an MIC in data set [1] of 0.25 µg/mL.

Regarding `CC[n+]1ccc(SCC2=C(C(=O)OCc3ccc(OC)cc3)N3C(=O)[C@@H](NC(=O)Cc4ccccc4)[C@H]3SC2)cc1.O=C([O-])C(F)(F)F`, the MIC is 16 µg/mL in data set [2], 0.125 µg/mL in data set [1], 16 µg/mL in data set [3] and 16 µg/mL in data set [4].
